≈ marks a conversion by molar mass, not a printed value.

Test [1] concerns Acinetobacter baumannii (A. baumannii) BAA747. The experiment in a line: Antibacterial activity, MIC (Table 4). It counts as cell-based. Particulars: A. baumannii BAA747, read-out: MIC, BAA747. The text has this:
(§1) The antibacterial activity from a microbroth dilution method may be presented as the minimum inhibitory concentration (MIC in μg/mL). The MIC value is the lowest concentration of drug which prevents macroscopically visible growth under test conditions.
(§2) Antibacterial activity of test compounds against the Gram-negative Acinetobacter baumannii (A. baumannii) BAA747 and Klebsiella pneumoniae (K. pneumoniae) 35657 bacterium and the resistant A. baumannii MXX2240 and K. pneumoniae MXX1232 strains are shown in Table 4. The MMX strains are multi-drug resistant clinical isolates.

The test system of test [2] is Klebsiella pneumoniae (K. pneumoniae) 35657. The experiment in a line: Antibacterial activity, MIC (Table 4). It counts as cell-based. The settings on record: K. pneumoniae 35657, read-out: MIC, 35657.
Excerpt: as §1, §2

For test [3], the system named is Pseudomonas aeruginosa (P. aeruginosa) 27853. The experiment in a line: Antibacterial activity, MIC (Table 5). The settings on record: P. aeruginosa 27853, read-out: MIC, 27853. It is filed as cell-based.
Excerpt: as §1
Antibacterial activity of test compounds against the Gram-negative bacterium Pseudomonas aeruginosa (P. aeruginosa) 27853 is shown in Table 5.

Test [4] concerns E. coli 25922. The experiment in a line: Antibacterial activity, microbroth dilution MIC (Table 1). It counts as cell-based, Escherichia coli. The settings on record: Escherichia coli; microbroth dilution; control Gram-negative E. coli 25922 strain; read-out: MIC, 25922. In short, it runs like this: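 Broth microdilution against S. aureus 29213, E. coli 25922 and hypersensitive E. coli BAS849. MIC in μg/mL is the lowest drug concentration preventing macroscopically visible growth under test conditions.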
Background: Broth dilution looks for growth in wells or tubes with falling amounts of substance.

The subject of test [5] is K. pneumoniae MXX1232. Kind of test: Antibacterial activity, MIC, resistant strain (Table 4). It counts as cell-based. Particulars: Klebsiella pneumoniae, MXX1232; resistant K. pneumoniae MMX1232, multi-drug resistant clinical isolate; read-out: MIC, MMX1232.
Excerpt: as §1, §2

Test [6] relates to A. baumannii MXX2240. The test is described as above. It is filed as cell-based. The settings on record: Acinetobacter baumannii, MXX2240; resistant A. baumannii MMX2240, multi-drug resistant clinical isolate; read-out: MIC, MMX2240.
Excerpt: as §1, §2

The test system of test [7] is Escherichia coli (E. coli) BAS849. Kind of test: Antibacterial activity, microbroth dilution MIC (Table 1). It counts as cell-based. Particulars: microbroth dilution, super sensitive Gram-negative E. coli BAS849, read-out: MIC, BAS849. In short, it runs like this:
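Values are MICs (μg/mL): the smallest drug amount at which macroscopically visible bacterial growth is absent under assay conditions, from a microdilution method in broth.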

Test [8] deals with Staphylococcus aureus (S. aureus) 29213. The description is as above. It is filed as cell-based. Particulars: microbroth dilution, Gram-positive S. aureus 29213, read-out: MIC, 29213. The essentials:
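Broth microdilution; endpoint = no macroscopic growth; value = lowest inhibiting concn, μg/mL.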

Test [9] relates to E. coli LZ3111. The experiment in a line: Antibacterial activity, MIC, quinolone resistant strain (Table 2). It counts as cell-based. Particulars: Escherichia coli, LZ3111, read-out: MIC LZ3111. The essentials: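 Growth inhibition assessed by serial drug dilution in broth; endpoint was absence of macroscopically visible growth, reported as MIC, μg/mL.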

As usually defined, the MIC is the lowest concentration found to suppress growth. On to `CCc1c(-c2ccc3c(c2)cc2n3C[C@H](CN)[C@@H]2NC)[nH]c(=O)c(C(=O)O)c1O.Cl.Cl` (relative stereo) [Cpd 421, 6-(cis-2-(aminomethyl)-1-(methylamino)-2,3-dihydro-1H-pyrrolo[1,2-a]indol-7-yl)-5-ethyl-4-hydroxy-2-oxo-1,2-dihydropyridine-3-carboxylic acid bis-hydrochloride], for which the MIC in test [1] lay within 12.5 to 150 mg/L; in test [2] it was 12.5 to 150 mg/L; in test [3], 12.5 to 150 mg/L; in [4], 3.5 to 12.5 mg/L; in test [5] it was 12.5 to 150 mg/L; in [6], 12.5 to 150 mg/L. The minimal inhibitory concentration (MIC) lay in the range of 1 to 3.5 mg/L in test [7], 12.5 to 150 mg/L in test [8] and 12.5 to 150 mg/L in test [9].

Take `CCc1c(-c2ccc3c(c2)cc2n3C[C@H](N)C[C@H]2NC)[nH]c(=O)c(C(=O)O)c1O.Cl.Cl` (relative stereo) [Cpd 422, 6-(trans-7-amino-9-(methylamino)-6,7,8,9-tetrahydropyrido[1,2-a]indol-2-yl)-5-ethyl-4-hydroxy-2-oxo-1,2-dihydropyridine-3-carboxylic acid bis-hydrochloride]: the MIC in test [1] lay within 12.5 to 150 mg/L; in test [2], 3.5 to 12.5 mg/L; in test [3] it was 12.5 to 150 mg/L; in test [4] it was 12.5 to 150 mg/L; in test [5], 12.5 to 150 mg/L; in test [6] it was 12.5 to 150 mg/L. Further, the minimal inhibitory concentration (MIC) in [7] was 1 to 3.5 mg/L; in [8], 12.5 to 150 mg/L; in test [9], 12.5 to 150 mg/L.

Turning to `CCc1c(-c2cn(C)c3ccccc23)[nH]c(=O)c(C(=O)O)c1O` [Cpd 14, 5-ethyl-4-hydroxy-6-(1-methyl-1H-indol-3-yl)-2-oxo-1,2-dihydropyridine-3-carboxylic acid], the minimum inhibitory concentration (MIC) in [1], in [2], in [3], in test [4], in test [5] and in [6] was 12.5 to 150 mg/L (≈ 40 to 480 µM) throughout. The MIC in test [7] lay within 1 to 3.5 mg/L (≈ 3.2 to 11.2 µM); in [8], 3.5 to 12.5 mg/L (≈ 11.2 to 40 µM); in test [9], 12.5 to 150 mg/L (≈ 40 to 480 µM).

In the case of `CCc1cc(C(=O)O)c(=O)[nH]c1-c1cnc2c(ccn2C)c1` [Cpd 31, 5-ethyl-6-(1-methyl-1H-pyrrolo[2,3-b]pyridin-5-yl)-2-oxo-1,2-dihydropyridine-3-carboxylic acid], the minimal inhibitory concentration (MIC) in test [1], in test [2], in test [3], in test [4], in test [5] and in [6] was 12.5 to 150 mg/L (≈ 42 to 505 µM) in each case. The MIC was 1 to 3.5 mg/L (≈ 3.36 to 11.8 µM) in [7], 12.5 to 150 mg/L (≈ 42 to 505 µM) in [8] and 12.5 to 150 mg/L (≈ 42 to 505 µM) in test [9].

Take `CCc1cc(C(=O)O)c(=O)[nH]c1-c1ccc2ncnn2c1.Cl` [Cpd 49, 6-([1,2,4]triazolo[1,5-a]pyridin-6-yl)-5-ethyl-2-oxo-1,2-dihydropyridine-3-carboxylic acid hydrochloride]: the minimum inhibitory concentration (MIC) in test [1], in test [2], in test [3], in [4], in [5] and in test [6] was 12.5 to 150 mg/L each time. The minimum inhibitory concentration (MIC) in test [7], in test [8] and in test [9] was 12.5 to 150 mg/L throughout.

Regarding `CCc1cc(C(=O)O)c(=O)[nH]c1-c1ccc2nncn2c1.Cl` [Cpd 50, 6-([1,2,4]triazolo[4,3-a]pyridin-6-yl)-5-ethyl-2-oxo-1,2-dihydropyridine-3-carboxylic acid hydrochloride], the minimal inhibitory concentration (MIC) in [1], in test [2], in test [3], in test [4], in [5] and in test [6] was 12.5 to 150 mg/L in each case. Also, the MIC in test [7], in [8] and in test [9] was 12.5 to 150 mg/L in each case.

As to `CCc1cc(C(=O)O)c(=O)[nH]c1-c1ccc2nccn2c1.Cl` [Cpd 51, 5-ethyl-6-(imidazo[1,2-a]pyridin-6-yl)-2-oxo-1,2-dihydropyridine-3-carboxylic acid hydrochloride], the MIC in test [1], in [2], in test [3], in [4], in test [5] and in test [6] was 12.5 to 150 mg/L each time. Further, the minimum inhibitory concentration (MIC) in test [7], in test [8] and in test [9] was 12.5 to 150 mg/L in each case.

As to `CCc1cc(C(=O)O)c(=O)[nH]c1-c1cnc2c(c1)ncn2C` [Cpd 52, 5-ethyl-6-(3-methyl-3H-imidazo[4,5-b]pyridin-6-yl)-2-oxo-1,2-dihydropyridine-3-carboxylic acid], the MIC in [1], in test [2], in test [3], in test [4], in [5] and in test [6] was 12.5 to 150 mg/L (≈ 41.9 to 503 µM) each time. Moreover, the MIC in test [7], in test [8] and in test [9] was 12.5 to 150 mg/L (≈ 41.9 to 503 µM) in each case.

Consider `CCc1cc(C(=O)O)c(=O)[nH]c1-c1ccc2c(c1)ncn2C` [Cpd 53, 5-ethyl-6-(1-methyl-1H-benzo[d]imidazol-5-yl)-2-oxo-1,2-dihydropyridine-3-carboxylic acid], for which the minimal inhibitory concentration (MIC) in test [1], in [2], in [3], in test [4], in [5] and in test [6] was 12.5 to 150 mg/L (≈ 42 to 505 µM) in each case. Moreover, the MIC in [7] lay within 3.5 to 12.5 mg/L (≈ 11.8 to 42 µM); in test [8], 12.5 to 150 mg/L (≈ 42 to 505 µM); in test [9] it was 12.5 to 150 mg/L (≈ 42 to 505 µM).

Regarding `CCc1c(-c2ccc3c(c2)cc(CN2C[C@@H]4[C@H](C2)[C@H]4NC)n3C)[nH]c(=O)c(C(=O)O)c1O` [Cpd 208, 5-ethyl-4-hydroxy-6-(1-methyl-2-(((1R,5S,6s)-6-(methylamino)-3-azabicyclo[3.1.0]hexan-3-yl)methyl)-1H-indol-5-yl)-2-oxo-1,2-dihydropyridine-3-carboxylic acid], the MIC is below 1 mg/L in [4]; 12.5 to 150 mg/L (≈ 28.6 to 344 µM) in test [5]; 12.5 to 150 mg/L (≈ 28.6 to 344 µM) in test [6]; below 1 mg/L in test [7]; 3.5 to 12.5 mg/L (≈ 8.02 to 28.6 µM) in test [8]; 3.5 to 12.5 mg/L (≈ 8.02 to 28.6 µM) in test [9].

As to `CCc1c(-c2ccc3c(c2)cc(CNCc2ccccc2)n3C)[nH]c(=O)c(C(=O)O)c1O.Cl` [Cpd 214, 6-(2-((benzylamino)methyl)-1-methyl-1H-indol-5-yl)-5-ethyl-4-hydroxy-2-oxo-1,2-dihydropyridine-3-carboxylic acid hydrochloride], the MIC in test [2] is 12.5 to 150 mg/L; in test [4] it was below 1 mg/L; in test [5], 12.5 to 150 mg/L; in test [7] it was below 1 mg/L; in test [8], 1 to 3.5 mg/L; in test [9], 12.5 to 150 mg/L.

On to `CCc1c(-c2ccc3c(c2)cc(CNCc2cccnc2)n3C)[nH]c(=O)c(C(=O)O)c1O.Cl` [Cpd 220, 5-ethyl-4-hydroxy-6-(1-methyl-2-((pyridin-3-ylmethylamino)methyl)-1H-indol-5-yl)-2-oxo-1,2-dihydropyridine-3-carboxylic acid hydrochloride], for which the MIC in test [2] is 3.5 to 12.5 mg/L; in test [4] it was below 1 mg/L; in [5], 12.5 to 150 mg/L; in test [7] it was below 1 mg/L; in test [8], 1 to 3.5 mg/L; in test [9] it was 12.5 to 150 mg/L.

`CCc1c(-c2ccc3c(c2)cc(CNCc2ccncc2)n3C)[nH]c(=O)c(C(=O)O)c1O.Cl` [Cpd 221, 5-ethyl-4-hydroxy-6-(1-methyl-2-((pyridin-4-ylmethylamino)methyl)-1H-indol-5-yl)-2-oxo-1,2-dihydropyridine-3-carboxylic acid hydrochloride]: the minimal inhibitory concentration (MIC) in test [2] was 1 to 3.5 mg/L; in test [4], 1 to 3.5 mg/L; in test [5], 12.5 to 150 mg/L; in test [7], below 1 mg/L; in test [8] it was 1 to 3.5 mg/L; in [9], 12.5 to 150 mg/L.

Take `CCc1c(-c2ccc3c(c2)cc(CN2CCC(O)CC2)n3C)[nH]c(=O)c(C(=O)O)c1O` [Cpd 254, 5-ethyl-4-hydroxy-6-(2-((4-hydroxypiperidin-1-yl)methyl)-1-methyl-1H-indol-5-yl)-2-oxo-1,2-dihydropyridine-3-carboxylic acid]: the minimal inhibitory concentration (MIC) is 3.5 to 12.5 mg/L (≈ 8.23 to 29.4 µM) in test [2]; 1 to 3.5 mg/L (≈ 2.35 to 8.23 µM) in test [4]; 12.5 to 150 mg/L (≈ 29.4 to 353 µM) in test [5]; below 1 mg/L in test [7]; 3.5 to 12.5 mg/L (≈ 8.23 to 29.4 µM) in test [8]; 12.5 to 150 mg/L (≈ 29.4 to 353 µM) in test [9].

For the origin of these results see patent publication US9409905B2, “Antibacterial compounds and methods for use” (PTC THERAPEUTICS, INC., priority 2011, dated 2016).
